27 molecules from US8871767B2, “2-arylimidazo[1,2-B]pyridazine, 2-phenylimidazo[1,2-A]pyridine, and 2-phenylimidazo[1,2-A]pyrazine derivatives” (Hengrui (USA) Ltd., priority 2010, dated 2014) can be followed below.

For experiment [1], the system named is Hedgehog pathway activation on 10T1/2/Smo#3 cells (C3H10T1/2 cells transfected with human Smoothened receptor). The experiment in a line: Hedgehog pathway activation on 10T1/2/Smo#3 cells measured by ALP activity. In kind it is cell-based. Conditions: Mus musculus, C3H 10T1/2, 10T1/2/Smo#3 cells. The essentials: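 Inhibition of alkaline phosphatase induction, read fluorometrically from 4-methylumbelliferyl phosphate conversion, gave IC50 values; CellTiter-Blue tracked viability in parallel. Cells were the human Smo-transfected 10T1/2/Smo#3 pool, stimulated by 10-20% hShh conditioned medium or the Smo agonist SAG (500 nM).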

The test system of experiment [2] is Hedgehog pathway activation (GLi-luciferase reporter) in Shh Light II reporter cells. The experiment in a line: Hedgehog pathway activation on Shh Light II reporter cells measured by luciferase activity. The format is cell-based. Conditions: Mus musculus, Shh Light II. The essentials:
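Shh Light II reporter cells carrying a hedgehog-responsive GLi-luciferase reporter were stimulated either with 500 nM SAG, a direct Smoothened agonist, or with conditioned media containing human Sonic Hedgehog (hShh). Test compounds were evaluated for blocking this pathway activation, quantified by luciferase activity. Cell viability was monitored in parallel with the Celltiter-Blue® assay.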

[3] abbreviates: measured by ALP activity, read-out: ALP (IC50, inhibition of Hedgehog pathway activation).
Where [4] appears, read: hShh activation, read-out: Shh (IC50, inhibition of Hedgehog pathway activation).
Where [5] appears, read: hShh activation, ALP activity, read-out: 10T1/2/Smo#3 ALP activity (hShh Activation).
[6] abbreviates: SAG activation (500 nM SAG), read-out: Shh Light II luciferase activity (SAG activation).
The mark [7] stands for this setting: hShh activation, read-out: Shh Light II luciferase activity (hShh activation).

Each structure is given as a SMILES string. pIC50: −log10 of the molar value. Like-named read-outs stand apart in the source and are kept apart here.

Turning to `COc1ccc2nc(-c3ccc(Cl)c(NC(=O)CC(C)C(F)(F)F)c3)cn2n1` (stereo not shown) [Example 120, N-(2-chloro-5-(6-methoxyimidazo[1,2-b]pyridazin-2-yl)phenyl)-4,4,4-trifluoro-3-methylbutanamide], the results for the pIC50 in experiment [1] (setting [3]) and in experiment [2] (setting [4]) were 5.20 and less than 5.00, respectively.

Consider `Cc1ccncc1-c1ccc2nc(-c3ccc(C(F)(F)F)c(NC(=O)C(C)(C)C)c3)cn2n1` [Example 383, N-(5-(6-(4-methylpyridin-3-yl)imidazo[1,2-b]pyridazin-2-yl)-2-(trifluoromethyl)phenyl)pivalamide], for which the pIC50 in experiment [1] (setting [3]) was 6.85; in experiment [2] (setting [4]), 6.71.

For `CC(C)(C)C(=O)Nc1cc(-c2cn3nc(-c4cc(Cl)ccc4F)ccc3n2)ccc1C(F)(F)F` [Example 227, N-(5-(6-(5-chloro-2-fluorophenyl)imidazo[1,2-b]pyridazin-2-yl)-2-(trifluoromethyl)phenyl)pivalamide], the pIC50 in experiment [1] (setting [3]) is 6.85; in experiment [2] (setting [4]) it was 7.19.

Consider `CC(C)(C)C(=O)Nc1cc(-c2cn3nc(Oc4ccc(F)cc4)ccc3n2)ccc1C(F)(F)F` [Example 196, N-(5-(6-(4-fluorophenoxy)imidazo[1,2-b]pyridazin-2-yl)-2-(trifluoromethyl)phenyl)pivalamide], for which the pIC50 was 5.52 to 6.52 in experiment [1] (setting [5]); 5.79 in experiment [1] (setting [3]); 4.52 to 5.52 in experiment [2] (setting [6]); 6.14 in experiment [2] (setting [4]); 5.52 to 6.52 in experiment [2] (setting [7]).

On to `CC(C)(C)C(=O)Nc1cc(-c2cn3nc(N(CCO)CCO)ccc3n2)ccc1C(F)(F)F` [Example 359, N-(5-(6-(bis(2-hydroxyethyl)amino)imidazo[1,2-b]pyridazin-2-yl)-2-(trifluoromethyl)phenyl)pivalamide], for which the pIC50 in experiment [1] (setting [3]) is 5.72; in experiment [2] (setting [4]), 5.73.

Regarding `CCc1ccc(-c2cn3nc(-c4cccnc4C(F)(F)F)ccc3n2)cc1NC(=O)C(C)(C)C(F)(F)F` [Example 690, N-(2-ethyl-5-(6-(2-(trifluoromethyl)pyridin-3-yl)imidazo[1,2-b]pyridazin-2-yl)phenyl)-3,3,3-trifluoro-2,2-dimethylpropanamide], the pIC50 is 6.65 in experiment [1] (setting [3]) and 7.23 in experiment [2] (setting [4]).

Consider `Cc1ccc(-c2cn3cccnc3n2)cc1NC(=O)CC(C)(C)C` [Example 89, N-(5-(imidazo[1,2-a]pyrimidin-2-yl)-2-methylphenyl)-3,3-dimethylbutanamide], for which the pIC50 in experiment [1] (setting [5]), in experiment [2] (setting [6]) and in experiment [2] (setting [7]) was 4.52 to 5.52 each time.

For the molecule `Cc1ccc(-c2cn3nc(-c4ccccc4C(F)(F)F)ccc3n2)cc1NC(=O)C(C)(C)C` [Example 259, N-(2-methyl-5-(6-(2-(trifluoromethyl)phenyl)imidazo[1,2-b]pyridazin-2-yl)phenyl)pivalamide], the pIC50 in experiment [1] (setting [3]) is 7.10; in experiment [2] (setting [4]) it was 7.08.

Consider `CCNS(=O)(=O)c1cc(-c2cn3nc(-c4cccnc4C(F)(F)F)ccc3n2)ccc1Cl` [Example 701, 2-chloro-N-ethyl-5-(6-(2-(trifluoromethyl)pyridin-3-yl)imidazo[1,2-b]pyridazin-2-yl)benzenesulfonamide], for which the pIC50 in experiment [1] (setting [3]) is less than 5.00; in experiment [2] (setting [4]) it was 5.58.

With `CC1CCCCC1Oc1ccc2nc(-c3ccc(C(F)(F)F)c(NC(=O)C(C)(C)C)c3)cn2n1` (stereo not shown) [Example 307, N-(5-(6-(2-methylcyclohexyloxy)imidazo[1,2-b]pyridazin-2-yl)-2-(trifluoromethyl)phenyl)pivalamide], the pIC50 is 6.40 in experiment [1] (setting [3]) and 6.45 in experiment [2] (setting [4]).

In the case of `CCOC1CCN(c2ccc3nc(-c4ccc(C(F)(F)F)c(NC(=O)C(C)(C)C)c4)cn3n2)CC1` [Example 367, N-(5-(6-(4-ethoxypiperidin-1-yl)imidazo[1,2-b]pyridazin-2-yl)-2-(trifluoromethyl)phenyl)pivalamide], the pIC50 in experiment [1] (setting [3]) is 6.46; in experiment [2] (setting [4]), 6.51.

With `Cc1ccc(-c2cn3nc(C4=CCC(C)(C)CC4)ccc3n2)cc1NC(=O)C(C)(C)C` [Example 444, N-(5-(6-(4,4-dimethylcyclohex-1-enyl)imidazo[1,2-b]pyridazin-2-yl)-2-methylphenyl)pivalamide], the pIC50 is 6.22 in experiment [1] (setting [3]) and 5.91 in experiment [2] (setting [4]).

Consider `Cc1cc(-c2ccc3nc(-c4ccc(C(F)(F)F)c(NC(=O)C(C)(C)C)c4)cn3n2)ccn1` [Example 381, N-(5-(6-(2-methylpyridin-4-yl)imidazo[1,2-b]pyridazin-2-yl)-2-(trifluoromethyl)phenyl)pivalamide], for which the pIC50 was 6.24 in experiment [1] (setting [3]) and 5.90 in experiment [2] (setting [4]).

As to `CC(C)(C)C(=O)Nc1cc(-c2cn3nc(N4CCC(N5CCOCC5)CC4)ccc3n2)ccc1C(F)(F)F` [Example 369, N-(5-(6-(4-morpholinopiperidin-1-yl)imidazo[1,2-b]pyridazin-2-yl)-2-(trifluoromethyl)phenyl)pivalamide], the pIC50 in experiment [1] (setting [5]) was 5.52 to 6.52; in experiment [1] (setting [3]) it was 6.44; in experiment [2] (setting [6]), 5.52 to 6.52; in experiment [2] (setting [4]), 6.15; in experiment [2] (setting [7]), 5.52 to 6.52.

Consider `CCOc1ccc2nc(-c3ccc(C(F)(F)F)c(NC(=O)Cc4ccccc4)c3)cn2n1` [Example 194, N-(5-(6-ethoxyimidazo[1,2-b]pyridazin-2-yl)-2-(trifluoromethyl)phenyl)-2-phenylacetamide], for which the pIC50 is less than 5.00 in experiment [1] (setting [3]) and 5.76 in experiment [2] (setting [4]).

In the case of `Cc1ccc(-c2cn3nc(-c4cc(C(N)=NO)ccc4Cl)ccc3n2)cc1NC(=O)C(C)(C)C` [compound 569], the pIC50 in experiment [1] (setting [5]) is greater than 6.52; in experiment [1] (setting [3]), 7.07; in experiment [2] (setting [6]), 5.52 to 6.52; in experiment [2] (setting [4]), 7.49; in experiment [2] (setting [7]), greater than 6.52.

In the case of `FC(F)(F)c1ccc(-c2cn3nc(Cl)ccc3n2)cc1Br` [Example 203, 2-(3-bromo-4-(trifluoromethyl)phenyl)-6-chloroimidazo[1,2-b]pyridazine], the results for the pIC50 in experiment [1] (setting [3]) and in experiment [2] (setting [4]) were 5.02 and less than 5.00, respectively.

In the case of `Cc1ccc(-c2cn3nc(-c4cccnc4C(F)(F)F)ccc3n2)cc1NC(=O)CCCCCCC(=O)NO` [Example 429, N^1-hydroxy-N^8-(2-methyl-5-(6-(2-(trifluoromethyl)pyridin-3-yl)imidazo[1,2-b]pyridazin-2-yl)phenyl)octanediamide], the pIC50 in experiment [1] (setting [5]) was 5.52 to 6.52; in experiment [1] (setting [3]) it was 5.89; in experiment [2] (setting [6]), 5.52 to 6.52; in experiment [2] (setting [4]) it was 6.78; in experiment [2] (setting [7]), 4.52 to 5.52.

As to `COC(=O)CCCCCCNC(=O)c1ccc(-c2ccc3nc(-c4ccc(C)c(NC(=O)C(C)(C)C)c4)cn3n2)c(C(F)(F)F)c1` [compound 509], the pIC50 in experiment [1] (setting [5]) is greater than 6.52; in experiment [1] (setting [3]), 6.67; in experiment [2] (setting [6]) it was 5.52 to 6.52; in experiment [2] (setting [4]), 6.80; in experiment [2] (setting [7]), greater than 6.52.

Regarding `CCOc1ccc2nc(-c3ccc(C(F)(F)F)c(NC(=O)c4ccccc4)c3)cn2n1` [Example 191, N-(5-(6-ethoxyimidazo[1,2-b]pyridazin-2-yl)-2-(trifluoromethyl)phenyl)benzamide], the values for the pIC50 in experiment [1] (setting [3]) and in experiment [2] (setting [4]) were 5.80 and 6.24, respectively.

As for `CC(=O)Nc1ccccc1-c1ccc2nc(-c3ccc(C(F)(F)F)c(NC(=O)C(C)(C)C)c3)cn2n1` [Example 255, N-(5-(6-(2-acetamidophenyl)imidazo[1,2-b]pyridazin-2-yl)-2-(trifluoromethyl)phenyl)pivalamide], the pIC50 in experiment [1] (setting [3]) is 6.31; in experiment [2] (setting [4]) it was 6.25.

For the molecule `CNC1CCN(c2ccc3nc(-c4ccc(C(F)(F)F)c(NC(=O)C(C)(C)C)c4)cn3n2)C1` (stereo not shown) [Example 349, N-(5-(6-(3-(methylamino)pyrrolidin-1-yl)imidazo[1,2-b]pyridazin-2-yl)-2-(trifluoromethyl)phenyl)pivalamide], the figures for the pIC50 in experiment [1] (setting [3]) and in experiment [2] (setting [4]) were 8.05 and 7.35, respectively.

For the molecule `Cc1ccc(-c2nc3ccc(-c4cccnc4C(F)(F)F)nn3c2C)cc1NC(=O)C(C)(C)C` [Example 353, N-(2-methyl-5-(3-methyl-6-(2-(trifluoromethyl)pyridin-3-yl)imidazo[1,2-b]pyridazin-2-yl)phenyl)pivalamide], the pIC50 in experiment [1] (setting [3]) is 7.25; in experiment [2] (setting [4]) it was 7.13.

Consider `Cc1c(-c2ccccc2)nc2ccc(N3CCN(C(=O)NC4CCCCC4)CC3)nn12` [Example 159, N-cyclohexyl-4-(3-methyl-2-phenylimidazo[1,2-b]pyridazin-6-yl)piperazine-1-carboxamide], for which the pIC50 in experiment [1] (setting [3]) and in experiment [2] (setting [4]) was 6.36 throughout.

With `Cc1ccc(-c2cn3nc(-c4ccc(C#N)cc4F)ccc3n2)cc1NC(=O)C(C)(C)C` [compound 545], the pIC50 in experiment [1] (setting [3]) is 6.35; in experiment [2] (setting [4]), 7.09.

On to `CC(C)(C)C(=O)Nc1cc(-c2cn3nc(-c4cccnc4)ccc3n2)ccc1C(F)(F)F` [Example 153, N-(5-(6-(pyridin-3-yl)imidazo[1,2-b]pyridazin-2-yl)-2-(trifluoromethyl)phenyl)pivalamide], for which the pIC50 is 5.52 to 6.52 in experiment [1] (setting [5]); 6.39 in experiment [1] (setting [3]); 5.52 to 6.52 in experiment [2] (setting [6]); 6.58 in experiment [2] (setting [4]); greater than 6.52 in experiment [2] (setting [7]).

On to `Cc1ccc(-c2cn3nc(N4CCC(N(C)C(=O)C(N)C(C)C)C4)ccc3n2)cc1NC(=O)C(C)(C)C` (stereo not shown) [Example 637, 2-amino-N,3-dimethyl-N-(1-(2-(4-methyl-3-pivalamidophenyl)imidazo[1,2-b]pyridazin-6-yl)pyrrolidin-3-yl)butanamide], for which the pIC50 was 6.38 in experiment [1] (setting [3]) and 5.66 in experiment [2] (setting [4]).
